Source: ChEMBL document CHEMBL1133362, “Discovery and evaluation of potent, cysteine-based alpha4beta1 integrin antagonists” (Bioorg Med Chem Lett, 2000)
pIC50: −log10 of the molar value.

Molecular target: Integrin alpha-4/beta-1 (Homo sapiens, UniProt P05556+P13612)
Assay: Inhibition of VCAM (vascular cell adhesion molecule) adhesion to alpha4-beta1 integrin of leukocyte cells
Type: functional, cell-based

Chain of Integrin alpha-4/beta-1 (P05556 whole entry): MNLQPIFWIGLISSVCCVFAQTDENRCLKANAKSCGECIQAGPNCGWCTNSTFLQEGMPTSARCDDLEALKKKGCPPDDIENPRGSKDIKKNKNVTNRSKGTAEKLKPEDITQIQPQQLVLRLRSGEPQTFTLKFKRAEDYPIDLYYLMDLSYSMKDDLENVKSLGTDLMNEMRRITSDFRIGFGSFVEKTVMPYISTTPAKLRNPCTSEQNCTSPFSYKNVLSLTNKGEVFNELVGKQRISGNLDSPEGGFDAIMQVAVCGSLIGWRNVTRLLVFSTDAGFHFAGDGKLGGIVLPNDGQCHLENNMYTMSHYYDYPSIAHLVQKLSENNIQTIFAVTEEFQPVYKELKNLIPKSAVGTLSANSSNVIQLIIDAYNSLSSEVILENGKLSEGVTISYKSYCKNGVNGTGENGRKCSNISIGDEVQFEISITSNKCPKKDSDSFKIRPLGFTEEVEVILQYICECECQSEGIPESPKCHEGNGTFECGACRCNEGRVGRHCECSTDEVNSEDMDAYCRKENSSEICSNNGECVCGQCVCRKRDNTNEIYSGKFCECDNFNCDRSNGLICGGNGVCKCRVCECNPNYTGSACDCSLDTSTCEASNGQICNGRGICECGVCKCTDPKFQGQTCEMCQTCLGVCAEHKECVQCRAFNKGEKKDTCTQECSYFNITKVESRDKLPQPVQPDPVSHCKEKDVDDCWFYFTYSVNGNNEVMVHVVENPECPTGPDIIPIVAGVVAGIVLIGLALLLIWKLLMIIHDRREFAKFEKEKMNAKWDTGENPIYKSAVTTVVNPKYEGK
Chain of Integrin alpha-4/beta-1 (P13612 whole entry): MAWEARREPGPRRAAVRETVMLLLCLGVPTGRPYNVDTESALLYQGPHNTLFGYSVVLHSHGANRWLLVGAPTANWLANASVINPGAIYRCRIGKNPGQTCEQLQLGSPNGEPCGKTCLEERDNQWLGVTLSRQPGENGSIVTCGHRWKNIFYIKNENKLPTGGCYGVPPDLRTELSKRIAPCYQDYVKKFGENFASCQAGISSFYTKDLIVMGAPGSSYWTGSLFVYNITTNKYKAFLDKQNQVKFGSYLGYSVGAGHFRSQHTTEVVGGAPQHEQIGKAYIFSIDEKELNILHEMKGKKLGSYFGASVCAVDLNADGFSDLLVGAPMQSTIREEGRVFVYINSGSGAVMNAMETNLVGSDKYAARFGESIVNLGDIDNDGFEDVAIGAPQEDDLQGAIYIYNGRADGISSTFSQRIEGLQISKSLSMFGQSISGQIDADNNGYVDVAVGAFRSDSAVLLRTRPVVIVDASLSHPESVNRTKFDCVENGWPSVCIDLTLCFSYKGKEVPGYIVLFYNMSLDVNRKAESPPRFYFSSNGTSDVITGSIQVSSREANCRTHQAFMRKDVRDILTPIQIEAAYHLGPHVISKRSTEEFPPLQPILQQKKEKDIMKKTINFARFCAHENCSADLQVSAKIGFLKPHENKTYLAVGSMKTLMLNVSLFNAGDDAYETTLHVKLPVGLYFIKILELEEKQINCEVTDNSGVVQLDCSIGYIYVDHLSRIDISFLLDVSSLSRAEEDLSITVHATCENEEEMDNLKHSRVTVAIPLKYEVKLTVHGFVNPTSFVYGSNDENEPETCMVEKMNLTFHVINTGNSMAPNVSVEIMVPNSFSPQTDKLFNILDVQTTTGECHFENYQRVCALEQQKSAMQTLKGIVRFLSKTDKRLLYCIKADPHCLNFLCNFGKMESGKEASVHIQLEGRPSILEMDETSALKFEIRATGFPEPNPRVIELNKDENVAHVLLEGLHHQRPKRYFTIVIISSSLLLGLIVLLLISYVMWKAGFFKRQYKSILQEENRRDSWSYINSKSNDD

With `O=C(O)[C@H](CSSCCNC(=O)C12CC3CC(CC(C3)C1)C2)NC(=O)C12CC3CC(CC(C3)C1)C2` as the molecule, how does the pIC50 read?
Its pIC50 is 5.39.

`O=C(O)C[C@H]1CN2CCCC[C@H]2C(=O)N[C@H](C(=O)O)CSSC[C@H](NC(=O)C23CC4CC(CC(C4)C2)C3)C(=O)N1` was tested. Which pIC50 did it give?
The pIC50 was 7.92.

With `O=C(O)C[C@H]1CN2CSC[C@H]2C(=O)N[C@H](C(=O)O)CSSC[C@H](NC(=O)C23CC4CC(CC(C4)C2)C3)C(=O)N1` as the molecule, how does the pIC50 read?
The pIC50 was 7.33.

With `CC(=O)N1CSC[C@H]1C(=O)N[C@@H](CSSCCNC(=O)C12CC3CC(CC(C3)C1)C2)C(=O)O` as the molecule, how does the pIC50 read?
The pIC50 was 6.55.

With `O=C(O)[C@H](CSSC[C@H](NC(=O)C12CC3CC(CC(C3)C1)C2)C(=O)O)NC(=O)C12CC3CC(CC(C3)C1)C2` as the molecule, how does the pIC50 read?
The pIC50 was 5.14.

`COC(=O)[C@H](CSSC[C@H](NC(=O)C12CC3CC(CC(C3)C1)C2)C(=O)O)NC(=O)C12CC3CC(CC(C3)C1)C2` was tested. Which pIC50 did it give?
Its pIC50 is 5.29.

With `COC(=O)[C@H](CSSC[C@H](NC(=O)[C@@H]1CCCN1C(C)=O)C(=O)O)NC(=O)C12CC3CC(CC(C3)C1)C2` as the molecule, how does the pIC50 read?
The pIC50 was 4.60.

How did the pIC50 turn out when `O=C(O)C[C@H]1CN2CCC[C@H]2C(=O)N[C@H](C(=O)O)CSSC[C@H](NC(=O)C23CC4CC(CC(C4)C2)C3)C(=O)N1` was run?
Its pIC50 is 6.77.

How did the pIC50 turn out when `CC(=O)N1CCC[C@H]1C(=O)N[C@@H](CSSCCNC(=O)C12CC3CC(CC(C3)C1)C2)C(=O)O` was run?
Its pIC50 is 5.63.

With `CC(=O)N1CCCC[C@H]1C(=O)N[C@@H](CSSCCNC(=O)C12CC3CC(CC(C3)C1)C2)C(=O)O` as the molecule, how does the pIC50 read?
Its pIC50 is 6.37.

With `C[C@H]1CN2CCC[C@H]2C(=O)N[C@H](C(=O)O)CSSC[C@H](NC(=O)C23CC4CC(CC(C4)C2)C3)C(=O)N1` as the molecule, how does the pIC50 read?
Its pIC50 is 6.48.

How did the pIC50 turn out when `COC(=O)[C@H](CSSC[C@H](NC(=O)C12CC3CC(CC(C3)C1)C2)C(=O)OC)NC(=O)C12CC3CC(CC(C3)C1)C2` was run?
Its pIC50 is under 3.10.
